Laboratory results: ChEMBL document CHEMBL1129017, “Chemical feasibility studies of a potential coumarin-based prodrug system” (Bioorg Med Chem Lett, 1996)

assay: Compound was evaluated for its half life period.; type: ADME

| half-life | Structure (SMILES) |
| --- | --- |
| 1.63 min | COc1ccc(NC(=O)/C=C\c2ccccc2OC(C)=O)cc1 |
| 31.2 min | CC(=O)Oc1ccccc1/C=C\C(=O)N(C)Cc1ccccc1 |
| 16.3 min | CC(=O)Oc1ccccc1/C=C\C(=O)NCc1ccccc1 |
